The test system of assay [1] is Hh pathway. The assay is described as follows: Shh-LIGHT2 assay for Hh pathway activation (Gli-dependent firefly luciferase). Type of assay: cell-based. As to the method: Shh-LIGHT2 assay for Hh pathway activation and library screening conditions. h-N-conditioned medium was prepared as previously described. […] For 96-well plate assays, Shh-LIGHT2 cells were seeded into each plate (10,000 cells/well) and cultured to confluency. The Shh-LIGHT2 cells were then grown in DMEM containing 0.5% CS, 100 U/mL penicillin, 0.1 mg/mL streptomycin, either 5% Shh-N-conditioned medium or 500 nM SAG, and various concentrations of the HPIs. After the cells were cultured for another 30 h, the resulting firefly and Renilla luciferase activities were measured using a Dual Luciferase Reporter kit (Promega) and a Veritas microplate luminometer (Turner Biosystems).
When the cells reached >90% confluency, they were removed by trypsinization and diluted to a final volume of 50 mL medium. This cell suspension was then plated into clear-bottom, white-walled 384-well plates using a Titertek Multidrop dispenser (50 μL/well) and the cells were cultured until they reached confluency (3-4 days). […] The plates were then placed into an automated Staccato system (Caliper Life Sciences), which includes an automated CO2 incubator. An automated protocol was then run, in 3 which a Multidrop dispenser added 10 μL of a SAG solution in 0.5% CS medium (final SAG concentration of 500 nM) to columns 1-22 and 100 nL of each compound solution was added to the plates using a V&P Scientific pin tool, resulting in a final compound screening concentration of 10 μM. The SAG-free wells were used as negative controls. After 28-32 h, the assay medium was manually removed and the plates were frozen. To assay the firefly luciferase activities, the plates were thawed and placed into a Twister II stacker in the Staccato system. Bright-Glo luciferase substrate (Promega) was added by the Multidrop dispenser and the plates were analyzed on an Analyst GT microplate reader (2 min in the dark, 0.2 sec integration/well; Molecular Devices). Hits were defined as compounds that reduce the firefly luciferase signal by at least 50% compared to inhibitor-free controls. Primary hits were then re-tested in duplicate in an eight-point, 1:1 serially diluted doseresponse curve with a starting concentration of 20 μM. In these experiments, the median inhibitory concentration (IC50) for both firefly and Renilla luciferase were determined using a Dual-Glo kit (Promega).

Assay [2] deals with Smo (Mus musculus, UniProt P56726). The assay is described as follows: BODIPY-cyclopamine/Smo binding assay. More on the design: expressed in transfected cells; host or cells: HEK-293T; species or system murine. Conditions: 5 nM BODIPY-cyclopamine, Smo-overexpressing HEK-293T cells, HPIs 20 μM. As to the method: BODIPY-cyclopamine/Smo binding assay. Smo-binding assays were conducted with BODIPY-cyclopamine and Smooverexpressing and HEK-293T cells as previously described, using a CMV-promoter based SV40 origin-containing expression construct for Smo-Myc3 (murine Smo containing three consecutive Myc epitopes at the C-terminus). […] The cells were cultured until they reached 55 to 65% confluency (14-18 h), after which they were transfected with the Smo-Myc3 expression construct and FuGENE (Roche) according to the manufacturer's protocols. 24 h after transfection, the cells were washed with phosphate-buffered saline (PBS) and cultured in DMEM containing 0.5% FBS, 5 nM BODIPY-cyclopamine, and individual HPIs (20 μM). After 30 min, 10 μM Hoescht 33342 was added to each well, and the HPIs were incubated with the cells for an additional 60 min. The cells were then washed two times with PBS buffer, mounted in Prolong Gold (Invitrogen) and immediately imaged using a DM4500B compound microscope (Leica).
Chain of Smo (P56726 33-793): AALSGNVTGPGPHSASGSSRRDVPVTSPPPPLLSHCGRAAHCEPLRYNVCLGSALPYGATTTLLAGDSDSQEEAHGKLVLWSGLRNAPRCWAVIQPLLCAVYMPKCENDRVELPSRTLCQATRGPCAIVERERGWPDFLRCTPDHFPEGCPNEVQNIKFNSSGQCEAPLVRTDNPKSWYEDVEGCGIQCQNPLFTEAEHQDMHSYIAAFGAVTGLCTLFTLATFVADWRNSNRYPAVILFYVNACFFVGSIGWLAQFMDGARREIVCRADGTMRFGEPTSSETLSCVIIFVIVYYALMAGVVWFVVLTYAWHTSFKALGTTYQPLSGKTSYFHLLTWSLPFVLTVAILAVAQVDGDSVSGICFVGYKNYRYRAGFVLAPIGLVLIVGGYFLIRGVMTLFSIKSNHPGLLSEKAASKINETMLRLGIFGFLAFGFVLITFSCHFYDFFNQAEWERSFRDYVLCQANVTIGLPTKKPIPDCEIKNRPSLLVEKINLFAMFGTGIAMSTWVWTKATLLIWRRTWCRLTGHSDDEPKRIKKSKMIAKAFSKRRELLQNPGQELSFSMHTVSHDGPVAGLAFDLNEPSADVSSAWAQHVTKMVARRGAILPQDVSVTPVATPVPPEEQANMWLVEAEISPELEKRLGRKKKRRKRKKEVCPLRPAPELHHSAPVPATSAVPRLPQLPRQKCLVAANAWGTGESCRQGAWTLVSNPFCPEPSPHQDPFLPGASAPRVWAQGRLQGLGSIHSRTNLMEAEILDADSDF

The test system of assay [3] is Hh pathway. Put plainly: Shh-EGFP assay for Hh pathway activation. Conditions: Shh-N-conditioned medium; HPIs at ten-fold their Shh-LIGHT2 IC50 or 30 μM, whichever lower. Type of assay: cell-based. As for the experimental part:
Shh-EGFP assay for Hh pathway activation. A Gli-dependent enhanced green fluorescent protein reporter (Shh-EGFP) was generated by excising firefly luciferase cDNA from the 8XGliBs vector using NcoI/Hpal, and ligating in EGFP cDNA excised from the pEGFP-C1 vector (Clontech) by NcoI/Af/II digestion. […] The cells were grown to confluency and treated with DMEM containing 0.5% CS, 100 U/mL penicillin, 0.1 mg/mL streptomycin, and 5% Shh-N-conditioned medium for 30 h. Following Shh-N treatment, the adherent cultures were dissociated into single cells with 0.05% Trypsin-EDTA (300 μL/well; Invitrogen) for 5 min. The cells were then suspended in 1 mL of PBS containing 1% CS and sorted on a BD FACSAria (excitation: 488 nm; emission: 530/30 nm) to enrich for cells expressing EGFP in a Shh-N-responsive manner. […] To identify Shh-EGFP clones with maximum Shh-N-responsiveness, individual lines were seeded into 24-well plates (45,000 cell/well) and cultured for 48 h. The cells were then treated with DMEM containing 0.5% CS, 100 U/mL pencillin, 0.1 mg/mL streptomycin or the culture medium plus 5% Shh-N-conditioned medium. After 30 h, the adherent cultures were treated with 0.05% trypsin-EDTA (150 μL/well; Invitrogen) for 5 min to dissociate them into single cells. The cells were then resuspended in 500 μL of PBS containing 1% CS and analyzed on a BD FACSCalibur (excitation: 488 nm; emission: 530/30 nm). 10,000 cells were used to assess EGFP expression levels as a measure of Hh pathway activation, and the data was analyzed using FlowJo software (Tree Star). Clones with low basal EGFP levels and maximum Shh-Ninduced EGFP expression were selected for further use. To assess the inhibitory activities of the HPIs in the Shh-EGFP cells, a clonal line with maximum Shh-responsiveness was cultured in 24-well plates as described above. […] The resulting EGFP levels were then evaluated by FACS and quantified using the FlowJo software.

Assay [4] relates to C3H10T(1/2) cells. The assay is described as follows: C3H10T(1/2) assay for Hh pathway activation (alkaline phosphatase). Type of assay: cell-based. Conditions: Mus musculus. As for the experimental part: C3H10T(1/2) assay for Hh pathway activation. C3H10T(1/2) cells (ATCC) were plated into 96-well plates using DMEM containing 10% FBS, 100 U/mL penicillin, 0.1 mg/mL streptomycin, 5% Shh-N-conditioned medium, and various concentrations of the Hh pathway inhibitors. After approximately 40 h, the cells were washed with PBS and lysed in 50 μL of buffer containing 50 mM Tris-HCl, pH 9.5, 150 mM NaCl, 5 mM MgCl2, and 1% Triton X-100. Alkaline phosphatase activities in the cell lysates were quantified by adding 10 μL of the lysate to 50 μL of CDP-Star chemiluminescence reagent (Perkin Elmer) and measuring the resulting chemiluminescence on a Veritas microplate luminometer.

The mark [5] stands for this setting: Shh Light2, stimulated with 500 nM SAG, read-out: IC50 (uM) SAG/Shh-LIGHT2 cells.
[6] abbreviates: Shh Light2, stimulated with Shh-N-conditioned medium, read-out: IC50 (uM) Shh/Shh-LIGHT2 cells.
The mark [7] stands for this setting: C3H 10T1/2, Shh-induced differentiation, alkaline phosphatase, read-out: IC50 (uM) Shh/C3H10T[1/2] cells.
Where [8] appears, read: SAG-stimulated Shh-LIGHT2 cells, firefly luciferase, read-out: median inhibitory concentrations (IC50s) in the screen.

Where two headings read alike, the source gives them in different places.

With `CCOC(=O)c1cn(-c2ccccc2)nc1-c1ccc(OC)c(OC)c1` [Compound 9], the results for the IC50 in assay [1] (setting [5]), in assay [1] (setting [6]) and in assay [4] (setting [7]) were 5 µM, 5 µM and 0.8 µM, respectively. In assay [2], the BODIPY-cyclopamine competition entry is given as “No”. Also, the “% Inhibition Shh-GFP cells” value in assay [3] came out at 86.5%.
For `CCC(C)NS(=O)(=O)c1ccc(Cc2ccc(S(=O)(=O)NC(C)CC)cc2)cc1` (stereo not drawn) [Compound 5], the IC50 in assay [1] (setting [5]) is 0.8 µM; in assay [1] (setting [6]), 1 µM; in assay [4] (setting [7]) it was 0.9 µM. For the same compound, the BODIPY-cyclopamine competition entry in assay [2] is “No”. Further, the “% Inhibition Shh-GFP cells” value in assay [3] was 84.9%.
As for `O=C(Nc1nnc(S(=O)(=O)N2CCCCC2)s1)c1cccc(Br)c1` [Compound 15], the values for the IC50 in assay [1] (setting [5]), in assay [1] (setting [6]) and in assay [4] (setting [7]) were 5 µM, 4.5 µM and 4 µM, respectively. For the same compound, the BODIPY-cyclopamine competition result in assay [2] was “No”. For the same compound, in assay [3], the “% Inhibition Shh-GFP cells” value is 86.9%.
In the same order, the values of `CCOc1ccc(CCNc2cnnc3c(Cl)cccc23)cc1OCC` [Compound 16] are 8 µM, 4.5 µM, 0.2 µM, “No” and 82.7%.
With `COCCOC(=O)C1=C(C)NC2=C(C(=O)CC(c3ccccc3OC)C2)C1c1cccc(O)c1` (mixture of isomers) [Compound 8, 4-(3-Hydroxy-phenyl)-7-(2-methoxy-phenyl)-2-methyl-5-oxo-1,4,5,6,7,8-hexahydro-quinoline-3-carboxylic acid 2-methoxy-ethyl ester], the IC50 in assay [1] (setting [8]) is less than 10 µM; in assay [1] (setting [5]) it was 1.5 µM; in assay [1] (setting [6]), 1.3 µM; in assay [4] (setting [7]), 0.4 µM. Moreover, the BODIPY-cyclopamine competition entry in assay [2] is “No”. Moreover, in assay [3], the “% Inhibition Shh-GFP cells” value is on record as 86%.
With `N#CC(C(=O)c1ccc(Cl)cc1Cl)=C1NC(=O)c2ccccc2N1` [Compound 18], the IC50 was less than 10 µM in assay [1] (setting [8]), 8 µM in assay [1] (setting [5]), 7.5 µM in assay [1] (setting [6]) and 0.7 µM in assay [4] (setting [7]). Besides, the BODIPY-cyclopamine competition result in assay [2] was “No”. Also, the “% Inhibition Shh-GFP cells” value in assay [3] amounted to 80%.
Take `CCOC(=O)c1cc2c(=O)n3ccccc3nc2n(C(C)C)c1=NC(=O)c1cc(OC)cc(OC)c1` [Compound 6]: the IC50 is 1 µM in assay [1] (setting [5]), 1 µM in assay [1] (setting [6]) and 0.45 µM in assay [4] (setting [7]). Besides, the BODIPY-cyclopamine competition entry in assay [2] was “No”. In addition, the “% Inhibition Shh-GFP cells” value in assay [3] came out at 84.5%.
As for `CCCCNC(=N)C(C)c1ccc(CC(C)C)cc1` (stereo not drawn) [Compound 2], the IC50 was found to be 2.2 µM in assay [1] (setting [5]), 1.6 µM in assay [1] (setting [6]) and 0.8 µM in assay [4] (setting [7]). Also, the BODIPY-cyclopamine competition result in assay [2] is recorded as “No”. The “% Inhibition Shh-GFP cells” value in assay [3] is given as 80.9%.
In the same order, the values of `O=C(Nc1cccc2ccccc12)OC[C@@H]1CCCN2CCCC[C@H]12` [Compound 4] are 4 µM, 1.8 µM, 0.8 µM, “No” and 63%.
In the same order, the values of `CCN1CCCC1CNC(=O)C1CCN(c2nc3c(C)cc(C)cc3s2)CC1` (stereo not drawn) [Compound 7] are 1 µM, 1.6 µM, 0.8 µM, “No” and 90.5%.
As to `OCCNc1nc(N2CCN(c3ccccc3)CC2)nc2ccccc12` [Compound 11], the IC50 in assay [1] (setting [8]) is less than 10 µM; in assay [1] (setting [5]) it was 1.5 µM; in assay [1] (setting [6]) it was 2 µM; in assay [4] (setting [7]) it was 2 µM. For the same compound, the BODIPY-cyclopamine competition result in assay [2] is “No”. For the same compound, in assay [3], the “% Inhibition Shh-GFP cells” value was 76.7%.
Consider `Cc1cc(/C=c2\sc3nc4ccccc4n3c2=O)c(C)n1C(C)C` [Compound 3], for which the IC50 in assay [1] (setting [5]) is 0.55 µM; in assay [1] (setting [6]), 0.5 µM; in assay [4] (setting [7]) it was 0.9 µM. For the same compound, the BODIPY-cyclopamine competition result in assay [2] is given as “No”. For the same compound, in assay [3], the “% Inhibition Shh-GFP cells” value is reported as 60.5%.
The corresponding values for `N#Cc1cc2c(nc1SCC(=O)Nc1nc3ccccc3s1)CCC2` [Compound 1] are 0.21 µM, 0.25 µM, 0.9 µM, “No” and 74.4%.
For the compound `CCOc1ccc2ncc(C(=O)c3ccc(C)cc3)c(N3CCCC3)c2c1` [Compound 14], the IC50 in assay [1] (Shh Light2, read-out: IC50 (uM) SAG/Shh-LIGHT2 cells) is 5.5 µM; in assay [1] (Shh Light2, read-out: IC50 (uM) Shh/Shh-LIGHT2 cells) it was 5.5 µM; in assay [4] (C3H 10T1/2, read-out: IC50 (uM) Shh/C3H10T[1/2] cells) it was 0.4 µM. Besides, in assay [2], the BODIPY-cyclopamine competition result is “No”. Besides, the “% Inhibition Shh-GFP cells” value in assay [3] is recorded as 67.2%.
As for `O=S(=O)(Nc1cc(Cl)c(Cl)cc1Cl)c1ccc(F)cc1` [Compound 10], the figures for the IC50 in assay [1] (setting [5]), in assay [1] (setting [6]) and in assay [4] (setting [7]) were 2.2 µM, 2.2 µM and 4 µM, respectively. Moreover, the BODIPY-cyclopamine competition result in assay [2] is reported as “No”. In addition, in assay [3], the “% Inhibition Shh-GFP cells” value stood at 78.8%.
Consider `COc1ccc(OC)c2c1cc1n2CC(C)(C(=O)NC2CCCCCCC2)N(CCN(C)C)C1=O` (stereo not drawn) [Compound 17], for which the IC50 in assay [1] (setting [8]) was less than 10 µM; in assay [1] (setting [5]), 2 µM; in assay [1] (setting [6]), 2 µM; in assay [4] (setting [7]), 2 µM. Further, the BODIPY-cyclopamine competition entry in assay [2] is “No”. In addition, the “% Inhibition Shh-GFP cells” value in assay [3] stood at 80.2%.

(Values after patent publication US8119640B2, “Hedgehog pathway antagonists methods of use” (The Board of Trustees of the Leland Stanford Junior …, priority 2008, dated 2012).)
